Assay results: ChEMBL document CHEMBL4699499, “Biochemical, cellular and structural characterization of novel and selective ERK3 inhibitors” (Bioorg Med Chem Lett, 2020)

Experiments:
[1] = target: T1, Mitogen-activated protein kinase 6 (Homo sapiens, UniProt Q16659); test: Binding affinity to recombinant wild-type ERK3 (9 to 327 residues) (unknown origin) expressed in Escherichia coli by microscale thermophoresis assay
[2] = target: T1, Mitogen-activated protein kinase 6; test: Binding affinity to wild-type human partial length ERK3 (M1 to P413 residues) expressed in bacterial expression system by kinomescan method
[3] = target: T1, Mitogen-activated protein kinase 6; test: Binding affinity to LPP-dephosphorylated recombinant wild-type ERK3 (9 to 327 residues) (unknown origin) expressed in Escherichia coli by microscale thermophoresis assay
[4] = target: T1, Mitogen-activated protein kinase 6; test: Binding affinity to recombinant wild-type ERK3 (9 to 327 residues) (unknown origin) expressed in Sf21 insect cells by microscale thermophoresis assay

T1 sequence (Q16659 whole entry, the tested form may be a part): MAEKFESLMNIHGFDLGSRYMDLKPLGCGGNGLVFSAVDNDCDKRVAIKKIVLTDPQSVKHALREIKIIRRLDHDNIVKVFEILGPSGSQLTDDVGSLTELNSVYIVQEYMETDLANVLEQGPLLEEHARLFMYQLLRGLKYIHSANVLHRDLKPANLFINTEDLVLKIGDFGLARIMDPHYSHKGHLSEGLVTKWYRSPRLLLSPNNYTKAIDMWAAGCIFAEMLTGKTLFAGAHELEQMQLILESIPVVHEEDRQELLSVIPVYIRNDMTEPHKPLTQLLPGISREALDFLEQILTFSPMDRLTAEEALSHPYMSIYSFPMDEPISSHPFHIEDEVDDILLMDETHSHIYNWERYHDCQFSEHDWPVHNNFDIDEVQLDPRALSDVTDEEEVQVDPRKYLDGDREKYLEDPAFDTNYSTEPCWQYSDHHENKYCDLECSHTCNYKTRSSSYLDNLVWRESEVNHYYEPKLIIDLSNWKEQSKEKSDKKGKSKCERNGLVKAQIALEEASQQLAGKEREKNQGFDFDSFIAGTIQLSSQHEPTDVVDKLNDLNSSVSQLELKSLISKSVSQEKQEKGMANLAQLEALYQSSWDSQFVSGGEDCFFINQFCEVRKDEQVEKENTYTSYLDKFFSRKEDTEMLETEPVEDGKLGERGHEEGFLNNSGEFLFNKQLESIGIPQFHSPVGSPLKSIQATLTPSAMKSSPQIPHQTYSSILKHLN

SMILES | Kd [1] [nM] | Kd [2] [nM] | Kd [3] [nM] | Kd [4] [nM]
O=C(Nc1ccc2[nH]nc(-c3ccncc3)c2c1)[C@@H]1CCN(CC(=O)N2CCN(c3ccc(-c4ncccn4)cc3)CC2)C1 | 14300 | – | – | –
COc1ccc(-n2nnc3cnc(N[C@H]4CC[C@H](C(N)=O)CC4)nc32)cc1 | 1300 | 980 | 1500 | 1100
Nc1n[nH]c2nnc(-c3c(-c4ccccc4)nn4ccccc34)cc12 | – | – | > 10000 | –
